From patent US6979685B1, “Cycloalkyl amine compounds and uses thereof” (Cardiome Pharma Corp., priority 1999, dated 2005)

Legend:
[1] = test system: cardiac arrhythmias in conscious rats subjected to coronary artery occlusion; assay: Antiarrhythmic efficacy: arrhythmias induced by coronary artery occlusion in conscious rats; type: in vivo, rat; details: infusion rate which reduces the arrhythmia score to 50% of that of vehicle-treated animals
Protocol: Antiarrhythmic efficacy was assessed by investigating the effect of a compound on the incidence of cardiac arrhythmias in conscious rats subjected to coronary artery occlusion. Rats weighing 200–300 gms were subjected to preparative surgery and assigned to groups in a random block design. In each case, the animal was anesthetized with halothane during surgical preparation. The left femoral artery was cannulated for measurement of mean arterial blood pressure and withdrawal of blood samples. The left femoral vein was also cannulated for injection of drugs. The thoracic cavity was opened and a polyethylene occluder loosely placed around the left anterior descending coronary artery. The thoracic cavity was then closed. ECG was recorded by insertion of electrodes placed along the anatomical axis of the heart. All cannulae and electrode leads were exteriorized in the mid scapular region. […] ECG, arrhythmias, blood pressure, heart rate and mortality were monitored for 30 minutes after occlusion. Arrhythmias were recorded as ventricular tachycardia (VT) and ventricular fibrillation (VF) and scored according to Curtis, M. J. and Walker, M. J. A., Cardiovasc. […]
Occlusion is associated with increases in R-wave height and “S-T” segment elevation: and an occluded zone (measured after death by cardiogreen dye perfusion) in the range of 25%–50% of total left-ventricular weight. […]

[2] = test system: ECG parameters (cardiac sodium channel / potassium channel blockage); assay: Measurement of ECG parameters in pentobarbital anesthetized rats; type: in vivo, rat; details: bolus injection; for ED25 QT: dose producing a 25% increase in Q-T interval; for ED25 QRS: dose producing a 25% increase in QRS interval
Protocol: Rats weighing 200–250 gms were used in this example. Animals were anesthetized with 60 mg/kg pentobarbital i.p. The carotid artery and jugular vein were cannulated for measurement of blood pressure and drug injection, respectively. ECG was recorded by insertion of electrodes placed along the anatomical axis of the heart. All compounds were given as bolus injections.
Various ECG parameters were measured. Table 4 describes the results of the tests as ED25 (micromol/kg) which are the doses required to produce a 25% increase in the parameter measured (NE=not estimated). The increases in P—R interval and QRS interval indicate cardiac sodium channel blockage while the increase in Q-T interval indicates ancillary cardiac potassium channel blockage which is the property of a type 1a antiarrhythmic.

[3] = test system: cardiac sodium channel blockage (left ventricle square wave stimulation); assay: Assessment of sodium channel blockage by electrical stimulation of the left ventricle in rats; type: in vivo; details: infusion rate eliciting a 25% increase from control; rat left ventricle stimulation
Protocol: Rats were prepared according to the preceding procedure. Two silver stimulating electrodes were inserted through the chest wall and implanted in the left ventricle. Square wave stimulation was used to determine threshold current for capture, ventricular fibrillation threshold current, and effective refractory period (Howard, P. G. and Walker, M. J. A., Proc. West. Pharmacol. Soc. 33:123–127 (1990)). Table 5 contains ED25 values for these indices of cardiac sodium channel blockage, where the ED25 is the infusion rate in micromol/kg/minute of compound required to elicit a 25% increase from control. The increases in refractoriness indicate ancillary blockage of potassium channels. The threshold current for capture is represented by “It”. The fibrillation threshold current is represented by “VFT”. The effective refracting period is represented by “ERP”.

Row | SMILES | ED50AA [1] [µmol/kg/min] | ED25 PR ([2]; dose producing a 25% increase in P-R interval) [µmol/kg] | ED25 QT [2] [µmol/kg] | ED25 QRS [2] [µmol/kg] | ED25 ERP (effective refractory period) [3] [µmol/kg/min] | ED25 It (threshold current for capture) [3] [µmol/kg/min] | ED25 VFT (fibrillation threshold current) [3] [µmol/kg/min]
1 | Cl.c1ccc2cc(CCOC3CCCC3N3CCOCC3)ccc2c1 [compound 1, (1R,2R)/(1S,2S)-2-(4-MORPHOLINYL)-1-(2-NAPHTHALENETHOXY)CYCLOPENTANE MONOHYDROCHLORIDE] | 1.5 | 45 | 2.5 | 37 | 2.5 | 3.3 | 1.3
2 | Cl.O=C1CCN(C2CCCC2OCCc2c(Cl)cccc2Cl)C1 [compound 2, (1R,2R)/(1S,2S)-2-(3-KETOPYRROLIDINYL)-1-(2,6-DICHLOROPHENETHOXY)CYCLOPENTANE MONOHYDROCHLORIDE] | 4 | – | 3.3 | 9 | 2.6 | 10 | –
